Common to all, as to test: DTP human tumour cell line panel, 48 h
Experiment [1] has as its system EKVX.
Experiment [2] has as its system COLO 205.
The test system of experiment [3] is K562.
Experiment [4] has as its system 786-0.
Experiment [5] concerns MDA-MB-231.
For experiment [6], the system named is SK-MEL-2.
Experiment [7] relates to SF-539.
Experiment [8] has as its system HT-29.
Experiment [9] deals with SF-268.
For experiment [10], the system named is T47D.
Experiment [11] relates to SF-295.
For experiment [12], the system named is A549.
Experiment [13] has as its system OVCAR-8.
Experiment [14] concerns NCI/ADR-RES.
In experiment [15] the test system is SR.
For experiment [16], the system named is KM12.
The test system of experiment [17] is NCI-H522.
Experiment [18] concerns HL-60.
Experiment [19] has as its system MDA-MB-435.

Consider four compounds from ChEMBL document CHEMBL1201862, “PubChem BioAssay data set” (2004).

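Values below derive from 48-hour exposures of cells grown in 96-well plates, with endpoints linearly interpolated between the two concentrations bracketing the appropriate inhibition level. GI50 marks 50% less growth.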 Calls of active or inactive are those of the source. Rule as the data show it: active = GI50 up to about 1.1 µM and inactive = higher.

As for `O=C(O)CCN(CCC(=O)O)c1ccc(/C=C2\SC(=S)NC2=O)cc1`, the GI50 in [1], in experiment [2], in experiment [3], in experiment [4], in [5] and in experiment [6] was > 100 µM (inactive) each time. The GI50 in experiment [7], in experiment [8], in experiment [9], in experiment [10], in experiment [11] and in experiment [12] was > 100 µM (inactive) each time. In addition, the GI50 is > 100 µM (inactive) in [13]; > 100 µM (inactive) in [14]; > 100 µM (inactive) in [15]; > 100 µM (inactive) in experiment [16]; 91.6 µM (inactive) in [17]; > 100 µM (inactive) in [18]. The GI50 in [19] was > 100 µM (inactive).
As for `COc1cc2c(cc1OC)C(Cc1ccccc1CCCl)=NCC2`, the GI50 in experiment [1] was > 100 µM (inactive); in experiment [2], 26.6 µM (inactive); in experiment [3], 30.3 µM (inactive); in experiment [4] it was > 100 µM (inactive); in [5], > 100 µM (inactive); in experiment [6], > 100 µM (inactive). Besides, the GI50 in experiment [7] is 21.2 µM (inactive); in experiment [8] it was 6.85 µM (inactive); in experiment [9] it was 53 µM (inactive); in experiment [10], 31.8 µM (inactive); in experiment [11] it was 33.7 µM (inactive); in experiment [12], 57.9 µM (inactive). Further, the GI50 in experiment [13] is 47.2 µM (inactive); in experiment [14], 25.8 µM (inactive); in [15] it was 84.1 µM (inactive); in [16], 36.8 µM (inactive); in experiment [17], 15.9 µM (inactive); in experiment [18], 19.8 µM (inactive). In addition, the GI50 in [19] is 40.1 µM (inactive).
For `Cc1oc2nc(N(C)C)nc(Cl)c2c1C`, the GI50 in experiment [1] is 34.8 µM (inactive); in experiment [2], > 100 µM (inactive); in [3], > 100 µM (inactive); in [4], > 100 µM (inactive); in experiment [5], > 100 µM (inactive); in experiment [6], > 100 µM (inactive). For the same compound, the GI50 in experiment [7] was > 100 µM (inactive); in experiment [8], > 100 µM (inactive); in experiment [9] it was > 100 µM (inactive); in experiment [10] it was 46.7 µM (inactive); in [11], > 100 µM (inactive); in [12] it was > 100 µM (inactive). Moreover, the GI50 in experiment [13], in experiment [14], in experiment [16], in [17], in experiment [18] and in [19] was > 100 µM (inactive) in each case.
Regarding `CC(C)(C)OC(=O)N(CCCCNCc1ccc2ccccc2c1)CCCNCc1ccc2ccccc2c1`, the GI50 in experiment [1] is 1.56 µM (inactive); in experiment [2] it was 1.17 µM (inactive); in experiment [3], 0.273 µM (active); in [4], 1.41 µM (inactive); in experiment [5] it was 1.02 µM (active); in [6], 2.06 µM (inactive). Besides, the GI50 in experiment [7] was 1.44 µM (inactive); in experiment [8] it was 0.893 µM (active); in [9] it was 1.77 µM (inactive); in experiment [10], 1.74 µM (inactive); in [11], 1.9 µM (inactive); in [12], 1.81 µM (inactive). Also, the GI50 is 1.67 µM (inactive) in experiment [13]; 1.57 µM (inactive) in experiment [14]; 1.3 µM (inactive) in [16]; 1.58 µM (inactive) in [17]; 0.204 µM (active) in experiment [18]; 1.84 µM (inactive) in experiment [19].
